# Measurements published in the supplement of paper PMC5579334.
# ± gives the standard deviation of the averaged measurements.
# What was measured:
# YST-1 [1] = experiment: % inhibition of CellTiter-Glo viability at highest tested concentration (72 h), relative to DMSO and benzethonium chloride controls; higher = more inhibition
# Summary of the method: (§1)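 Viability of MPNST cell lines and primary human Schwann cells was read as CellTiter-Glo ATP luminescence after 72 h at 37 °C, 5% CO2, in 384-well plates seeded with 750–1000 cells per well. Each compound had been preprinted at five concentrations in 10-fold steps. Signals were scaled between vehicle and positive-control wells, duplicates averaged where present, and fitted with four-parameter logistic curves. Drug sensitivity score and relative IC50 (censored at the top concentration) come from those fits, and percent inhibition is taken at the top concentration.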
# [2] = tested on: HSC2 (primary human Schwann cells); experiment: as above
# Summary of the method: as §1
# [3] = tested on: HSC1 (primary human Schwann cells); experiment: as above
# Summary of the method: as §1
# HS-Sch-2 [4] = experiment: as above
# Summary of the method: as §1
# STS26T [5] = experiment: as above
# Summary of the method: as §1
# S462 [6] = experiment: as above
# Summary of the method: as §1
# S1507-2 [7] = experiment: as above
# Summary of the method: as §1
# HS-PSS [8] = experiment: as above
# Summary of the method: as §1
# ST8814 [9] = experiment: as above
# Summary of the method: as §1
# [10] = tested on: HSC2 (primary human Schwann cells); experiment: drug sensitivity score (DSS, CellTox-Green cytotoxicity, 72 h) (DSS (dimensionless)); higher = more cytotoxic; extreme values may be limits of the assay
# Summary of the method: (§2)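 MPNST cell lines and primary human Schwann cells were grown for 72 h at 37 °C in 384-well plates containing five 10-fold compound dilutions. CellTox-Green, added before seeding at a final 1:1000 dilution, gave fluorescence from DNA released by disrupted cells, and signals were scaled to vehicle and positive-control wells. Curves were fitted with a four-parameter logistic model. Drug sensitivity score and relative IC50 come from these fits, with IC50 censored at the top concentration.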
# [11] = tested on: HSC1 (primary human Schwann cells); experiment: as above
# Summary of the method: as §2
# STS26T [12] = experiment: as above
# Summary of the method: as §2
# S1507-2 [13] = experiment: as above
# Summary of the method: as §2
# HS-PSS [14] = experiment: as above
# Summary of the method: as §2
# ST8814 [15] = experiment: as above
# Summary of the method: as §2
# YST-1 [16] = experiment: drug sensitivity score (DSS, CellTiter-Glo viability, 72 h) (DSS (dimensionless)); higher = more sensitive; extreme values may be limits of the assay
# Summary of the method: as §1
# [17] = tested on: HSC2 (primary human Schwann cells); experiment: as above
# Summary of the method: as §1
# [18] = tested on: HSC1 (primary human Schwann cells); experiment: as above
# Summary of the method: as §1
# HS-Sch-2 [19] = experiment: as above
# Summary of the method: as §1
# STS26T [20] = experiment: as above
# Summary of the method: as §1
# S462 [21] = experiment: as above
# Summary of the method: as §1
# S1507-2 [22] = experiment: as above
# Summary of the method: as §1
# HS-PSS [23] = experiment: as above
# Summary of the method: as §1
# ST8814 [24] = experiment: as above
# Summary of the method: as §1
SMILES,% inhibition (YST-1 [1]) [%],% inhibition [2] [%],% inhibition [3] [%],% inhibition (HS-Sch-2 [4]) [%],% inhibition (STS26T [5]) [%],% inhibition (S462 [6]) [%],% inhibition (S1507-2 [7]) [%],% inhibition (HS-PSS [8]) [%],% inhibition (ST8814 [9]) [%],drug sensitivity score [10],drug sensitivity score [11],drug sensitivity score (STS26T [12]),drug sensitivity score (S1507-2 [13]),drug sensitivity score (HS-PSS [14]),drug sensitivity score (ST8814 [15]),drug sensitivity score (YST-1 [16]),drug sensitivity score [17],drug sensitivity score [18],drug sensitivity score (HS-Sch-2 [19]),drug sensitivity score (STS26T [20]),drug sensitivity score (S462 [21]),drug sensitivity score (S1507-2 [22]),drug sensitivity score (HS-PSS [23]),drug sensitivity score (ST8814 [24])
CS(=O)(=O)c1ccc(C(=O)Nc2ccc(Cl)c(-c3ccccn3)c2)c(Cl)c1 [Vismodegib] (max concentration tested 10000 nM),6.14,-4.33,-4.59,17.3,2.72,-4.72 ± 14,2.36 ± 1.7,13.9,-2.96,0,0,0,0,0,0,0,0,0,1.12,0,0,0,0.05,0
COc1cc(Nc2c(C#N)cnc3cc(OCCCN4CCN(C)CC4)c(OC)cc23)c(Cl)cc1Cl [Bosutinib] (max concentration tested 10000 nM),100,86,80,100,95.4,94.85 ± 0.58,96.4 ± 2,99.8,96.5,3.59,1.14,5.46,6.25 ± 1.3,5.37,7.01,6.63,9.52,7.12,9.19,9.81,9.09 ± 1.4,9.52 ± 0.072,5.17,9.35
O=C(/C=C/c1cccnc1)NCCCCC1CCN(C(=O)c2ccccc2)CC1 [Daporinad] (max concentration tested 1000 nM),101,83.4,70.9,101,95.5,100.3 ± 0.6,87.9 ± 6.3,90.9,93.2,0,0,9.24,0,0,0,31.1,21.9,18.8,29.8,16.4,28.6 ± 0.7,15.02 ± 0.15,25,24.1
